Tests used:
PDX1 and MafA mRNA = assay: qRT-PCR of β cell transcription factors in Tm-treated INS-1 cells; assay type: cell-based, rat; settings: Tm 0.1 μg/mL, 9c 20 μM, 24 h, FIG. 5C, D
Source text: ER stress also impairs the most important function of β cells: the biosynthesis and secretion of insulin. Multiple steps of insulin synthesis and secretion are impaired under ER stress; they include insulin gene transcription, insulin mRNA stability, protein translation, and the insulin protein secretory process. First, we examined whether compound 9c could rescue Tm-suppressed mRNA levels of insulin genes. […] Second, we examined whether compound 9c affects the expression of β cell transcription factors PDX1 and MafA, which control β cell identity and the expression of insulin genes. Chronic exposure to supraphysiologic concentrations of glucose and its associated ER stress cause the down-regulation of expression of PDX1 and MafA. Consistent with this notion, Tm decreased the levels of PDX1 and MafA mRNA expression levels in INS-1 cells. […] Next, we explored whether compound 9c re-establishes Tm-impaired glucose-stimulated insulin secretion (GSIS).
INS-1 cells were seeded at 4×10^5 cells/well in 6-well plates and treated with compounds for the indicated times. Total RNA was extracted using TRIzol reagent (Invitrogen, Carlsbad, Calif.) according to the manufacturer's protocol, and 2 μg of total RNA was reverse transcribed using a Superscript kit (Invitrogen). […]

βTC6 cells = assay: βTC6 cell viability after Tm treatment (CellTiter-Glo); assay type: cell-based; settings: Tm 0.25 μg/mL, 72 h, FIG. 3B
Source text: To rule out the possibility of an ATP-specific (rather than viability) effect of the compounds, we used the MTT assay, which measures the activity of NAD(P)H-dependent cellular oxidoreductase enzymes, as an orthogonal method to measure cell viability. […] To confirm that the protective effect of 9c on β cells is not INS-1 cell-specific, another β cell line, βTC6, was used. […] To determine whether the protective effect of 9c on β cells is specific to Tm-induced stress, we used another ER stressor, BFA, which inhibits a key guanine nucleotide exchange factor essential for the transport of proteins from the ER to the Golgi, to treat INS-1 cells.
INS-1 cells or βTC6 cells were seeded at 3×10^3 cells/well in a 384-well plate and treated with compounds at the indicated concentrations. After 3 d treatment, the medium was aspirated and 20 μL/well of CellTiter-Glo reagent (Promega, WI, USA) was added for the detection of intracellular ATP levels. Cell viability was measured with an EnVision multilabel plate reader (PerkinElmer, MA, USA).

XBP1s mRNA = assay: XBP1 splicing (qRT-PCR and RT-PCR) in Tm-treated INS-1 cells; assay type: cell-based, rat; settings: Tm 0.1 μg/mL, 9c 20 μM
Source text: Next, we investigated the mechanism by which 9c protects β cells against ER stress. In response to ER stress, all three branches of the UPR, IRE1α, PERK and ATF6, are activated to either restore cellular homeostasis/survival or lead to cell death, depending on the severity of ER stress. First, we asked whether 9c affects the activation of IRE1α in β cells under ER stress. Activated IRE1α cleaves X-box binding protein-1 (XBP1) mRNA to generate a spliced form (XBP1s) that is translated into a potent transcription factor which controls expression of UPR genes encoding factors involved in ER protein folding and degradation. We therefore determined the effect of 9c on IRE1α-mediated XBP1 splicing in INS-1 cells in the presence of Tm.
INS-1 cells were seeded at 4×10^5 cells/well in 6-well plates and treated with compounds for the indicated times. Total RNA was extracted using TRIzol reagent (Invitrogen, Carlsbad, Calif.) according to the manufacturer's protocol, and 2 μg of total RNA was reverse transcribed using a Superscript kit (Invitrogen). Real-time PCR was performed in 96-well format using SYBR Select Master Mix (Applied Biosystems, Foster City, Calif.) with an ABI 7500 PCR system (Applied Biosystems). The primer sequences used are shown in U.S. Ser. No. 62/542,408, Aug. 8, […].

INS-1 cells = assay: Live-cell phase-contrast images of Tm-treated INS-1 cells; assay type: cell-based, rat; settings: Tm 0.1 μg/mL, 9c 20 μM, 24 h, FIG. 4B
Description: (A) INS-1 cells were treated with or without Tm (0.1 μg/mL) in the presence of 9c (20 μM) or DMSO for the indicated times. Cleaved caspase-3 and PARP were determined by Western blotting. A-Tubulin was used as a loading control. The data shown are representative of 3 independent experiments. (B) INS-1 cells were treated with or without Tm (0.1 μg/mL) in the presence of 9c (20 μM) or DMSO for 24 h, and live-cell phase-contrast images were acquired (magnification 10×).
To determine whether the increase in cell viability following treatment with 9c was caused by a suppression of apoptotic cell death, levels of cleaved caspase-3 and cleaved PARP were assessed by Western blotting. Caspase-3, a member of executioner caspases, plays essential roles in initiating apoptotic signaling and executing the final stages of cell death as it is responsible for the proteolytic cleavage of many key proteins, such as the nuclear enzyme poly (ADP-ribose) polymerase (PARP) which is a family of proteins involved in a number of cellular processes involving DNA repair and cell death. […] However, upon severe ER stress, caspase 3 undergoes proteolytic cleavage to produce two subunits that dimerize to form the active enzyme, which in turns cleaves PARP.

ATF4 and CHOP protein = assay: Western blotting of ATF4 and CHOP in Tm-treated INS-1 cells; assay type: cell-based, rat; settings: Tm 0.1 μg/mL, 9c 20 μM, FIG. 8C
Source text: We then determined the effect of 9c on the activation of the PERK pathway in β cells under ER stress. Activated PERK phosphorylates eukaryotic translation initiator factor 2a (eIF2α), which in turn attenuates general protein synthesis to relieve ER load. EIF2α phosphorylation also allows the selective translation of ATF4 mRNA, which encodes a transcription factor that induces the expression of the pro-apoptotic gene C/EBP-homologous protein (CHOP). Thus, we used ATF4 and CHOP expression levels as markers of PERK pathway activation. […] Together, our results that 9c inhibited the ER stress-mediated activation of all three UPR pathways indicate that 9c protects β cell survival by alleviating ER stress.
INS-1 cells were seeded in 60-mm dishes at 8×10^5 cells/dish and treated for the indicated times. Cells were then washed with PBS and lysed with lysis buffer (Cell Signaling Technology, Danvers, Mass.) containing EDTA (Thermo, IL) and phosphatase inhibitors (Thermo). Aliquots of 20 μg total protein were separated on 7% SDS-PAGE gels (Life Technologies) and transferred to PVDF membranes (Life Technologies). The membranes were probed with primary antibodies followed by the appropriate HRP-conjugated secondary antibodies (goat anti-rabbit IgG and goat anti-mouse IgG, 1:3000; Santa Cruz Biotechnology, CA, USA). Blots were then developed. […]

COc1ccc(CNc2nc(N3CCCCC3CO)nc3ccccc23)cc1 (racemic) [Compound 9c, (1-(4-((4-methoxybenzyl)amino)quinazolin-2-yl)piperidin-2-yl)methanol]
PDX1 and MafA mRNA expression levels (PDX1 and MafA mRNA): almost completely reversed this decrease to normal levels | viability of βTC6 cells (intracellular ATP level) (βTC6 cells): rescued the viability of βTC6 cells in a dose-dependent manner | XBP1s mRNA (qRT-PCR) (XBP1s mRNA; FIG. 6A): suppressed | XBP1s mRNA (RT-PCR, electrophoretic separation of spliced and unspliced forms) (XBP1s mRNA; FIG. 6B): inhibits the Tm-induced generation of XBP1s mRNA | viable cells observed (phase-contrast) (INS-1 cells): significantly more viable cells | ATF4 and CHOP protein levels (ATF4 and CHOP protein): decreased ATF4 and CHOP protein levels

Reference: patent US10815219B2, “2,4-diaminoquinazoline derivatives for inhibiting endoplasmic reticulum (ER) stress” (The Board of Regents of the University of Oklahoma, priority 2017, dated 2020)
